The structures appear in SMILES notation.

What is called Km is the concentration of substrate that gives half-maximal velocity.

In this experiment the target is T1, K. bupleuri laccase G3 (Aureobasidium bupleuri, UniProt A0A8F5DNG6).
T1 construct: about 70-75 kDa by SDS-PAGE
T1 sequence (A0A8F5DNG6 21-645): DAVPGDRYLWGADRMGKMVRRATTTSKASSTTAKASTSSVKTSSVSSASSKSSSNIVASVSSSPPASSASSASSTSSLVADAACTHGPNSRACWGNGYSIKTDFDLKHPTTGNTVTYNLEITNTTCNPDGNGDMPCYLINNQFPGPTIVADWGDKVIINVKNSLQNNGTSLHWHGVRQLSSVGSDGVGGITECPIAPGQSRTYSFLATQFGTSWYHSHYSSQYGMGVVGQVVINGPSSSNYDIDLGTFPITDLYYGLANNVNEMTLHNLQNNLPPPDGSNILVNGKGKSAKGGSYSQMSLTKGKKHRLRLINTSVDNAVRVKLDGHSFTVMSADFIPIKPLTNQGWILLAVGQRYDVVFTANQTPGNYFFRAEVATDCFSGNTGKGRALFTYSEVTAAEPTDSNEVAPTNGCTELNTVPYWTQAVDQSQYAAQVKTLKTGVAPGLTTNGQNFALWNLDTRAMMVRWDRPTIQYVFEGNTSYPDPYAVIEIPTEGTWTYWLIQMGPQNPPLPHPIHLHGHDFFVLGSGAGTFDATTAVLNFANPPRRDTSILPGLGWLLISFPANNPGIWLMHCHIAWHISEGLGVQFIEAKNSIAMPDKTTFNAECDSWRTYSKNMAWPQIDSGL
Briefly: spectrophotometric oxidation at […] nm; Lineweaver-Burk. The format is biochemical. The conditions noted are these: pH 3.5, 30 °C; partially purified native enzyme; read-out: apparent Km.

As to `CCn1c(=NN=c2sc3cc(S(=O)(=O)O)ccc3n2CC)sc2cc(S(=O)(=O)O)ccc21` [ABTS, 2,2’-azino-bis(3-ethylbenzothiazoline-6-sulfonic acid)], the Km amounted to 584 µM.

The values are drawn from publication PMC8229335, “Screening of Novel Laccase Producers—Isolation and Characterization of Cold-Adapted Laccase from Kabatiella bupleuri G3 Capable of Synthetic Dye Decolorization” (Biomolecules, 2021).
